Measurements as given in the supplement of paper PMC10307832.

What follows are cell lines tested with CC1(COc2ccc3c(c2)ncn3-c2ccc3cccc(N4CCC(N)CC4)c3n2)COC1 [Crenolanib] + C[C@@H](Oc1cc(-c2cnn(C3CCNCC3)c2)cnc1N)c1c(Cl)ccc(F)c1Cl [Crizotinib] (partner 1 µM) (assay: relative viability (nuclei count vs DMSO), 5 days (fraction); higher = more cells survive). Settings: first compound 0.01 µM.
How it was run: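 Relative viability divides the nuclei count in treated wells by that in vehicle wells. Lung cancer cell lines were seeded in 1536-well plates, dosed by pin tool the next day, and fixed and stained after 5 days in one step with final 0.05% Triton X-100, 1% formaldehyde and 1 ug/ml Hoechst. Dosing was a single drug or a fixed anchor-drug dose plus five library-drug doses (not always all listed) in √10 steps, and values are medians of duplicate plates imaged at 4×.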

Row | Cell Line | relative viability
1 | NCI-H460 | 0.935
2 | NCI-H727 | 0.858
3 | NCI-H1755 | 0.835
4 | NCI-H520 | 0.743
5 | NCI-H2405 | 0.899
6 | SW 1573 | 0.748
7 | 201T | 1.04
8 | NCI-H1975 | 1
9 | HOP-62 | 0.87
10 | NCI-H2347 | 0.934
11 | NCI-H1355 | 1.15
12 | NCI-H650 | 0.968
13 | CAL-12T | 0.66
14 | NCI-H1666 | 1.05
15 | H3255 | 1.07
16 | NCI-H23 | 0.689
17 | NCI-H1915 | 0.9
18 | NCI-H1437 | 1.02
19 | NCI-H322M | 0.96
20 | NCI-H1563 | 0.867
21 | NCI-H1792 | 1.05

Same assay, conditions: first compound 0.03162 µM

Row | Cell Line | relative viability
22 | LXF-289 | 0.745
23 | BEN | 0.839
24 | HCC-15 | 0.815
25 | HCC-827 | 0.885
26 | LOU-NH91 | 0.753
27 | NCI-H2023 | 0.706
28 | A-427 | 0.946
29 | NCI-H460 | 0.924
30 | NCI-H727 | 0.956
31 | NCI-H1755 | 0.932
32 | NCI-H520 | 0.915
33 | NCI-H2405 | 0.94
34 | SW 1573 | 0.886
35 | 201T | 1.02
36 | NCI-H1975 | 1.15
37 | HOP-62 | 1.03
38 | NCI-H2347 | 0.624
39 | NCI-H1355 | 1.07
40 | NCI-H650 | 0.706
41 | CAL-12T | 0.709
42 | NCI-H1666 | 0.917
43 | H3255 | 0.806
44 | NCI-H23 | 0.476
45 | NCI-H1915 | 0.896
46 | NCI-H1437 | 1.04
47 | NCI-H322M | 0.807
48 | NCI-H1563 | 0.841
49 | NCI-H1792 | 0.958

Same assay, conditions: first compound 0.1 µM

Row | Cell Line | relative viability
50 | LXF-289 | 0.777
51 | BEN | 0.863
52 | HCC-15 | 0.847
53 | HCC-827 | 0.932
54 | LOU-NH91 | 0.688
55 | NCI-H2023 | 0.639
56 | A-427 | 0.804
57 | NCI-H460 | 0.904
58 | NCI-H727 | 0.806
59 | NCI-H1755 | 0.832
60 | NCI-H520 | 0.802
61 | NCI-H2405 | 0.623
62 | SW 1573 | 0.795
63 | 201T | 1.01
64 | NCI-H1975 | 0.978
65 | HOP-62 | 0.984
66 | NCI-H2347 | 0.506
67 | NCI-H1355 | 0.973
68 | NCI-H650 | 0.805
69 | CAL-12T | 0.704
70 | NCI-H1666 | 1.01
71 | H3255 | 0.889
72 | NCI-H23 | 0.615
73 | NCI-H1915 | 0.868
74 | NCI-H1437 | 1
75 | NCI-H322M | 1
76 | NCI-H1563 | 0.862
77 | NCI-H1792 | 0.933

Same assay, conditions: first compound 0.3162 µM

Row | Cell Line | relative viability
78 | LXF-289 | 0.753
79 | BEN | 0.763
80 | HCC-15 | 0.8
81 | HCC-827 | 0.964
82 | LOU-NH91 | 0.722
83 | NCI-H2023 | 0.814
84 | A-427 | 0.87
85 | NCI-H460 | 1.19
86 | NCI-H727 | 0.973
87 | NCI-H1755 | 0.917
88 | NCI-H520 | 0.933
89 | NCI-H2405 | 0.809
90 | SW 1573 | 0.834
91 | 201T | 1.04
92 | NCI-H1975 | 1.03
93 | HOP-62 | 0.821
94 | NCI-H2347 | 0.59
95 | NCI-H1355 | 1.06
96 | NCI-H650 | 0.5
97 | CAL-12T | 0.816
98 | NCI-H1666 | 0.885
99 | H3255 | 0.85
100 | NCI-H23 | 0.441
101 | NCI-H1915 | 0.856
102 | NCI-H1437 | 1.04
103 | NCI-H322M | 0.903
104 | NCI-H1563 | 0.848
105 | NCI-H1792 | 1.17

Same assay, conditions: first compound 1 µM

Row | Cell Line | relative viability
106 | LXF-289 | 0.81
107 | BEN | 0.847
108 | HCC-15 | 0.727
109 | HCC-827 | 0.884
110 | LOU-NH91 | 0.729
111 | NCI-H2023 | 0.622
112 | A-427 | 1.02
113 | NCI-H460 | 0.831
114 | NCI-H727 | 0.824
115 | NCI-H1755 | 0.854
116 | NCI-H520 | 0.983
117 | NCI-H2405 | 0.837
118 | SW 1573 | 0.884
119 | 201T | 0.976
120 | NCI-H1975 | 0.892
121 | HOP-62 | 1.02
122 | NCI-H2347 | 0.72
123 | NCI-H1355 | 0.894
124 | NCI-H650 | 0.644
125 | CAL-12T | 0.787
126 | NCI-H1666 | 1
127 | H3255 | 0.825
128 | NCI-H23 | 0.575
129 | NCI-H1915 | 0.855
130 | NCI-H1437 | 0.897
131 | NCI-H322M | 1.05
132 | NCI-H1563 | 0.847
133 | NCI-H1792 | 0.943
